One molecule from patent publication US20250345318A1, “COMPOUND AND USE THEREOF IN PREVENTING OR TREATING RADIATION DAMAGE” (SIMCERE PHARMACEUTICAL CO., LTD., priority 2022, published 2025) can be followed below.

Data set [1] has as its system IEC-6 cells. Kind of data set: Colocalization of cytochrome C and mitochondria in irradiated IEC-6 cells (Example 13). Type of data set: cell-based. The note with it: 1 μM JAC4 24 h pretreatment + 12 Gy, 24 h after. As to the method:
The effect was explored in a small intestinal epithelial IEC-6 cell in-vitro radiation model.
Formulation of JAC4 (1 μM or 10 μM): 5 mg of JAC4 was added to 1527 μL of DMSO to prepare a 10 mM stock solution, which was then serially diluted into 2 mM and 200 μM stock solutions.
10 μL of 200 μM stock solution was added into 90 μL of complete culture medium. The 100-μL mixture was uniformly mixed before 900 μL of complete culture medium was added, and uniformly mixed again before 1 mL of complete culture medium was added. The mixture was again uniformly mixed and then added into a six-well plate to give 1 μM JAC4.
Control wells: 10 μL of DMSO was added into 90 μL of complete culture medium. The 100-μL mixture was uniformly mixed before 900 μL of complete culture medium was added, and uniformly mixed again before 1 mL of complete culture medium was added. The mixture was again uniformly mixed and then added into a six-well plate.
IEC-6 cells were pretreated for 24 h with 1 μM JAC4 or DMSO and subjected to radiation (12 Gy) treatment. After 24 h, colocalized cell immunofluorescent images of mitochondrial cytochrome C staining and mitochondria staining were acquired and subjected to fluorescent colocalization analysis using the Image J software to give colocalization correlation coefficients (***p<0.001) of cytochrome C and mitochondria in IEC-6 cells after different treatments.

The test system of data set [2] is JWA. Kind of data set: JWA expression in small intestine by Western blot (Example 4). The note with it: small intestine tissue; JAC4 100 mg/kg oral, 7 days before and 4 days after TBI 6 Gy. Type of data set: in vivo, mice. As to the method:
C57BL/6 male mice (24.8±1.6 g in body weight) aged 10 weeks were divided into 2 groups. After acclimating to the environment, JAC4 (100 mg/kg) or an equal volume of vehicle (polyethylene glycol:ethanol:physiological saline=47.5:7.5:50, v/v/v) was orally administered to the mice once daily for 7 consecutive days. After that, the mice were subjected to total body X-ray irradiation (6 Gy) and JAC4 or vehicle treatment was continued for 4 days, after which small intestine tissues were collected. The expression levels of JWA in the small intestine were detected by Western blot, with β-actin as the reference. Adobe photoshop CC was used to measure the grayscale value of JWA/β-actin in panel A for statistical analysis (** p<0.01).
The Western blot procedures are as follows:
1. Protein sample preparation: Proper volumes of protein sample solutions were mixed with physiological saline to give […] solutions at a volume of 16 μL, and 4 μL of 5×SDS sample buffer was added. The mixture was uniformly mixed, centrifuged at 1000×g for 10 s, and boiled at 100° C. for 5 min. The samples were cooled at room temperature and then preserved in a −20° C. freezer.
(1) Lower separating gel: The glass plates and gel cassette were assembled while ensuring that the bottom of the glass plates was sealed to prevent leakage of the gel. […]
(Immunoblotting shows a protein as a band on a membrane.)

For data set [3], the system named is C57BL/6 male mice. Kind of data set: Blood biochemistry after total body irradiation (Example 3). Type of data set: in vivo. Here is the method: C57BL/6 male mice (24.8±1,6 g in body weight) aged 10 weeks were divided into 4 groups of 8 mice each. After acclimating to the environment, JAC4 (100 mg/kg) or an equal volume of vehicle (polyethylene glycol:ethanol:physiological saline=47.5:7.5:50, v/v/v) was orally administered to the mice once daily for 7 consecutive days. After that, the mice in one JAC4 treatment group and one vehicle group were subjected to total body X-ray irradiation (6 Gy) and JAC4 or vehicle treatment was continued. After 3 days, the administration of JAC4 or vehicle was discontinued, and blood samples, small intestine tissues, and thymus and spleen tissues were collected 4 days later.
The biochemical results of the mice were tested, with procedures as follows: Peripheral blood was collected from the orbit into an ethylenediaminetetraacetic acid K3 tube, followed by immediate blood biochemistry analysis on a blood analyzer.

[4] abbreviates: non-radiation, JAC4 100 mg/kg oral.

In the case of `c1ccc(CSc2nnc(C3COc4ccccc4O3)o2)nc1` (centres unmarked) [JAC4], the “fluorescent colocalization correlation coefficient of the mitochondria and cytochrome C” value in data set [1] came to 0.73±0.02. Also, in data set [2], the “mean grayscale value of JWA expression (JWA/β-actin)” value is reported as 0.72±0.13. Moreover, in data set [3] (JAC4 100 mg/kg oral + TBI 6 Gy), the ALT is given as 31.33±3.14 U/L, the AST was 110.17±20.86 U/L, the CK-MB is listed as 437.67±90.38 U/L and the LDH came out at 888.67±81.48 U/L. Also, the SOD in data set [3] (JAC4 100 mg/kg oral + TBI 6 Gy) is reported as 133.00±6.96 U/mL. Moreover, in data set [3] (setting [4]), the ALT is given as 47.17±14.81 U/L, the AST was 140.83±38.72 U/L, the CK-MB stood at 565.50±261.37 U/L and the LDH came to 444.00±94.58 U/L.
